Data: patent US8901147B2, “Bi-heteroaryl compounds as Vps34 inhibitors” (Novartis AG, priority 2010, dated 2014)

Target: recombinant human Vps34 (Homo sapiens, UniProt Q8NEB9)
Test: Vps34 KinaseGlo assay
Assay type: biochemical
Conditions: KinaseGlo luminescence ATP detection; PI/OG substrate; 1 μM ATP; room temperature; 8 concentrations, n=2
Protocol: It was then resuspended in 3% OctylGlucoside by vortexing and stored at 4° C. 5 μL of a mix of PI/OG with recombinant human Vps34 were added. Kinase reactions were started by addition of 5 μl of ATP-mix containing in a final volume 10 μL 10 mM TRIS-HCl pH 7.5, 3 mM MgCl2, 50 mM NaCl, 0.05% CHAPS, 1 mM DTT and 1 μM ATP, and occurred at room temperature. Reactions were stopped with 10 μl of KinaseGlo and plates were read 10 minutes later in a Synergy2 reader using an integration time of 0.1 seconds per well.

Chain of recombinant human Vps34 (Q8NEB9 whole entry): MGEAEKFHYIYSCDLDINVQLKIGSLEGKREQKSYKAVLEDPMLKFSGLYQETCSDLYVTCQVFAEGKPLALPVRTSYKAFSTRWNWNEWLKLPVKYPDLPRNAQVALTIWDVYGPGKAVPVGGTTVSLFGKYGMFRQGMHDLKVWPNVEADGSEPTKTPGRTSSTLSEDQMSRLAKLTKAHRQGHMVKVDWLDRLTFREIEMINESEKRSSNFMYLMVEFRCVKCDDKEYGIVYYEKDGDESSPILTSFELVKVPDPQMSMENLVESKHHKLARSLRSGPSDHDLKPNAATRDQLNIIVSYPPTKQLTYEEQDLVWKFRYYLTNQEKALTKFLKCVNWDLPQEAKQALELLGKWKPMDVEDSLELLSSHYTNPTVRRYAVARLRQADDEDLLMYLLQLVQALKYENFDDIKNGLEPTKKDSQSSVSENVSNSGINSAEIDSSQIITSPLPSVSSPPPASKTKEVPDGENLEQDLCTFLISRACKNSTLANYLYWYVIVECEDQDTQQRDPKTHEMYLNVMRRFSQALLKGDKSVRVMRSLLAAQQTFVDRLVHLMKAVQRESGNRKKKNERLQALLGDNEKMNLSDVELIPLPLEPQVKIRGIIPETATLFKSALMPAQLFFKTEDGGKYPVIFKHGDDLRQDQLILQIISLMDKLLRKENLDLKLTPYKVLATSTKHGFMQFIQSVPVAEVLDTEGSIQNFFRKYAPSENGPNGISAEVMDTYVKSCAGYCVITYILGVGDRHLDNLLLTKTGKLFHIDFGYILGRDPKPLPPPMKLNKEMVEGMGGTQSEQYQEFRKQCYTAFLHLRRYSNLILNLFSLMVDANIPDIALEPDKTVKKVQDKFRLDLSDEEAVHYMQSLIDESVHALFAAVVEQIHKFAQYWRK

| SMILES | IC50 |
| --- | --- |
| OCCNc1ncc(-c2ccnc(Nc3ccncc3)n2)c(CC2CC2)n1 [Example 10m, 2-(4′-(cyclopropylmethyl)-2-(pyridin-4-ylamino)-4,5′-bipyrimidin-2′-ylamino)ethanol] | 11.5 nM |
| CCC(C)Nc1ncc(-c2ccnc(Nc3ccncc3)n2)c(CC2CC2)n1 (stereo not drawn) [Example 10s, N^2′-sec-butyl-4′-(cyclopropylmethyl)-N^2-(pyridin-4-yl)-4,5′-bipyrimidine-2,2′-diamine] | 51.5 nM |
| CC(O)CNc1ncc(-c2ccnc(Nc3ccncc3)n2)c(CC2CC2)n1 (stereo not drawn) [Example 10j, 1-(4′-(cyclopropylmethyl)-2-(pyridin-4-ylamino)-4,5′-bipyrimidin-2′-ylamino)propan-2-ol] | 29 nM |
| CC(C)(O)CNc1ncc(-c2ccnc(Nc3ccc(C#N)cc3)n2)c(C(F)(F)F)n1 [Example 25, 4-(2′-(2-hydroxy-2-methylpropylamino)-4′-(trifluoromethyl)-4,5′-bipyrimidin-2-ylamino)benzonitrile] | 117 nM |
| c1cc(Nc2nccc(-c3cnc(NC4CCOCC4)nc3CC3CC3)n2)ccn1 [Example 10g, 4′-(cyclopropylmethyl)-N^2-(pyridin-4-yl)-N^2′-(tetrahydro-2H-pyran-4-yl)-4,5′-bipyrimidine-2,2′-diamine] | 236 nM |
| c1cc(Nc2nccc(-c3cnc(NC4CCC4)nc3CC3CC3)n2)ccn1 [Example 10f, N^2′-cyclobutyl-4′-(cyclopropylmethyl)-N^2-(pyridin-4-yl)-4,5′-bipyrimidine-2,2′-diamine] | 45.5 nM |
| CC(C)(C)CNc1ncc(-c2ccnc(Nc3ccncc3)n2)c(CC2CC2)n1 [Example 10r, 4′-(cyclopropylmethyl)-N2′-neopentyl-N2-(pyridin-4-yl)-4,5′-bipyrimidine-2,2′-diamine] | 85 nM |
| Cc1nc(N)ncc1-c1ccnc(Nc2ccncc2)n1 [Example 21, 4′-Methyl-N^2-pyridin-4-yl-[4,5′]bipyrimidinyl-2,2′-diamine] | 22.2 nM |
| CCNc1ncc(-c2ccnc(Nc3ccncc3)n2)c(CC2CC2)n1 [Example 10b, 4′-(cyclopropylmethyl)-N^2′-ethyl-N^2-(pyridin-4-yl)-4,5′-bipyrimidine-2,2′-diamine] | 20 nM |
| CC(C)(C)Nc1ncc(-c2ccnc(Nc3ccncc3)n2)c(CC2CC2)n1 [Example 10i, N^2′-tert-butyl-4′-(cyclopropylmethyl)-N^2-(pyridin-4-yl)-4,5′-bipyrimidine-2,2′-diamine] | 35 nM |
| Nc1ncc(-c2ccnc(Nc3ccncc3)n2)c(CO)n1 [Example 23, [2′-Amino-2-(pyridin-4-ylamino)-4,5′-bipyrimidin-4′-yl]methanol] | 130 nM |
| c1cc(Nc2nccc(-c3cncnc3CC3CC3)n2)ccn1 [Example 10v, 4′-(cyclopropylmethyl)-N-(pyridin-4-yl)-4,5′-bipyrimidin-2-amine] | 214 nM |
| C[C@H](CO)Nc1ncc(-c2ccnc(Nc3ccncc3)n2)c(CC2CC2)n1 [Example 10p, (R)-2-(4′-(cyclopropylmethyl)-2-(pyridin-4-ylamino)-4,5′-bipyrimidin-2′-ylamino)propan-1-ol] | 210 nM |
| O[C@H]1CC[C@H](Nc2nccc(-c3cncnc3CC3CC3)n2)CC1 [Example 6a, Trans-4-{[4′-(cyclopropylmethyl)-4,5′-bipyrimidin-2-yl]amino}cyclohexanol] | 1000 nM |
| COc1ncc(-c2ccnc(Nc3ccncc3)n2)c(CC2CC2)n1 [Example 10u, 4′-(cyclopropylmethyl)-2′-methoxy-N-(pyridin-4-yl)-4,5′-bipyrimidin-2-amine] | 90.5 nM |
| c1ccc(CNc2ncc(-c3ccnc(Nc4ccncc4)n3)c(CC3CC3)n2)cc1 [Example 10c, N^2′-benzyl-4′-(cyclopropylmethyl)-N^2-(pyridin-4-yl)-4,5′-bipyrimidine-2,2′-diamine] | 75.5 nM |
| CC(C)(O)CNc1ncc(-c2ccnc(Nc3ccncc3)n2)c(C(F)(F)F)n1 [Example 24, 2-methyl-1-(2-(pyridin-4-ylamino)-4′-(trifluoromethyl)-4,5′-bipyrimidin-2′-ylamino)propan-2-ol] | 96 nM |
| CCc1ncc(-c2ccnc(N[C@H]3CC[C@H](O)CC3)n2)c(CC2CC2)n1 [Example 6d, (1r,4r)-4-(4′-(cyclopropylmethyl)-2′-ethyl-4,5′-bipyrimidin-2-ylamino)cyclohexanol] | 728 nM |

The next lines start with the values.

| IC50 | SMILES |
| --- | --- |
| 1500 nM | Nc1ncc(-c2ccnc(NC3CCCOC3)n2)c(CC2CC2)n1 (stereo not drawn) [Example 15d, 4′-(cyclopropylmethyl)-N2-(tetrahydro-2H-pyran-3-yl)-4,5′-bipyrimidine-2,2′-diamine] |
| 193 nM | Nc1ncc(-c2ccnc(Nc3ccc(Cl)cn3)n2)c(CC2CC2)n1 [Example 15v, N^2-(5-chloropyridin-2-yl)-4′-(cyclopropylmethyl)-4,5′-bipyrimidine-2,2′-diamine] |
| 411 nM | CNc1ncc(-c2ccnc(NC3CCC(N)CC3)n2)c(CC2CC2)n1 (stereo not drawn) [Example 14j, N^2-(4-aminocyclohexyl)-4′-(cyclopropylmethyl)-N^2′-methyl-4,5′-bipyrimidine-2,2′-diamine] |
| 115 nM | CNc1ncc(-c2ccnc(Nc3ccc(OC)nc3)n2)c(CC2CC2)n1 [Example 14a, 4′-Cyclopropylmethyl-N^2-(6-methoxy-pyridin-3-yl)-N^2′-methyl-[4,5′]bipyrimidinyl-2,2′-diamine] |
| 577 nM | CC(=O)N[C@H]1CC[C@H](Nc2nccc(-c3cnc(N)nc3CC3CC3)n2)CC1 [Example 15a, N-((1r,4r)-4-(2′-amino-4′-(cyclopropylmethyl)-4,5′-bipyrimidin-2-ylamino)cyclohexyl)acetamide] |
| 105 nM | CC(C)(O)CNc1ncc(-c2ccnc(Nc3ccc(Cl)cc3)n2)c(CC2CC2)n1 [Example 16e, 1-(2-(4-chlorophenylamino)-4′-(cyclopropylmethyl)-4,5′-bipyrimidin-2′-ylamino)-2-methylpropan-2-ol] |
| 570 nM | c1cc(Nc2nccc(-c3cnc(NC4CCCCC4)nc3CC3CC3)n2)ccn1 [Example 12b, N^2′-cyclohexyl-4′-(cyclopropylmethyl)-N^2-(pyridin-4-yl)-4,5′-bipyrimidine-2,2′-diamine] |
| 26 nM | CC(C)(O)CNc1ncc(-c2ccnc(Nc3ccc(S(C)(=O)=O)cc3)n2)c(CC2CC2)n1 [Example 16d, 1-(4′-(cyclopropylmethyl)-2-(4-(methylsulfonyl)phenylamino)-4,5′-bipyrimidin-2′-ylamino)-2-methylpropan-2-ol] |
| 34.5 nM | CC(C)Nc1ncc(-c2ccnc(Nc3ccncc3)n2)c(CC2CC2)n1 [Example 12a, 4′-Cyclopropylmethyl-N^2′-isopropyl-N^2-pyridin-4-yl-[4,5′]bipyrimidinyl-2,2′-diamine] |
| 872 nM | CC(C)(O)CNc1ncc(-c2ccnc(N[C@H]3CC[C@H](NS(C)(=O)=O)CC3)n2)c(CC2CC2)n1 [Example 16g, N-((1r,4r)-4-(4′-(cyclopropylmethyl)-2′-(2-hydroxy-2-methylpropylamino)-4,5′-bipyrimidin-2-ylamino)cyclohexyl)methanesulfonamide] |
| 199 nM | CS(=O)(=O)N[C@H]1CC[C@H](Nc2nccc(-c3cnc(N)nc3CC3CC3)n2)CC1 [Example 15b, N-((1r,4r)-4-(2′-amino-4′-(cyclopropylmethyl)-4,5′-bipyrimidin-2-ylamino)cyclohexyl)methanesulfonamide] |
| 45.5 nM | c1cc(Nc2nccc(-c3cnc(NC4CC4)nc3CC3CC3)n2)ccn1 [Example 12c, N^2′-cyclopropyl-4′-(cyclopropylmethyl)-N^2-(pyridin-4-yl)-4,5′-bipyrimidine-2,2′-diamine] |
| 25 nM | Nc1ncc(-c2ccnc(Nc3ccc4[nH]ccc4c3)n2)c(CC2CC2)n1 [Example 15l, 4′-(cyclopropylmethyl)-N^2-(1H-indol-5-yl)-4,5′-bipyrimidine-2,2′-diamine] |
| 57 nM | Nc1ncc(-c2ccnc(Nc3ccc(Cl)cc3)n2)c(CC2CC2)n1 [Example 15o, N^2-(4-chlorophenyl)-4′-(cyclopropylmethyl)-4,5′-bipyrimidine-2,2′-diamine] |
| 1540 nM | CNc1ncc(-c2ccnc(NC3CCN(C)CC3)n2)c(CC2CC2)n1 [Example 14r, 4′-(cyclopropylmethyl)-N^2′-methyl-N^2-(1-methylpiperidin-4-yl)-4,5′-bipyrimidine-2,2′-diamine] |
| 5170 nM | CNc1ncc(-c2ccnc(Nc3cc(OC)cc(OC)c3)n2)c(CC2CC2)n1 [Example 14p, 4′-(cyclopropylmethyl)-N^2-(3,5-dimethoxyphenyl)-N^2′-methyl-4,5′-bipyrimidine-2,2′-diamine] |
| 1290 nM | Nc1ncc(-c2ccnc(NCc3cccnc3)n2)c(CC2CC2)n1 [Example 15q] |
| 2230 nM | CC(C)(CO)CNc1nccc(-c2cnc(N)nc2CC2CC2)n1 [Example 15g, 3-(2′-amino-4′-(cyclopropylmethyl)-4,5′-bipyrimidin-2-ylamino)-2,2-dimethylpropan-1-ol] |
| 25 nM | CC(C)(O)CNc1ncc(-c2ccnc(Nc3ccc(C#N)cc3)n2)c(CC2CC2)n1 [Example 16b, 4-(4′-(cyclopropylmethyl)-2′-(2-hydroxy-2-methylpropylamino)-4,5′-bipyrimidin-2-ylamino)benzonitrile] |
| 1100 nM | CNc1ncc(-c2ccnc(NC3CCCCC3)n2)c(CC2CC2)n1 [Example 14e, N^2-Cyclohexyl-4′-cyclopropylmethyl-N^2′-methyl-[4,5′]bipyrimidinyl-2,2′-diamine] |
| 31 nM | CCc1nc(NCC(C)(C)O)ncc1-c1ccnc(Nc2ccc(C#N)cc2)n1 [Example 37a, 4-(4′-ethyl-2′-(2-hydroxy-2-methylpropylamino)-4,5′-bipyrimidin-2-ylamino)benzonitrile] |
